Data as given in ChEMBL document CHEMBL3046071, “Synthesis and microbial evaluation of novel N(1)-Arilidene-N(2)-t(3)-methyl-r(2),c(6)-diaryl-piperidin-4-one azine derivatives” (2006).
Values after ≈ are worked out from the molar mass of the structure shown.

Columns and labels:
Format in all cases: functional
[1] = system: Aspergillus flavus; experiment: Antifungal activity against Aspergillus flavus
[2] = system: Candida; experiment: Antifungal activity against Candida-6
[3] = system: Candida; experiment: Antifungal activity against Candida-51
[4] = system: Aspergillus niger; experiment: Antifungal activity against Aspergillus niger
[5] = system: Pseudomonas aeruginosa; experiment: Antibacterial activity against Pseudomonas aeruginosa
[6] = system: Escherichia coli; experiment: Antibacterial activity against Escherichia coli
[7] = system: Staphylococcus aureus; experiment: Antibacterial activity against Staphylococcus aureus
[8] = system: Enterococcus faecalis; experiment: Antibacterial activity against Enterococcus faecalis
[9] = system: Bacillus subtilis; experiment: Antibacterial activity against Bacillus subtilis

Row | MIC [1] [µg/mL] | MIC [2] [µg/mL] | MIC [3] [µg/mL] | MIC [4] [µg/mL] | MIC [5] [µg/mL] | MIC [6] [µg/mL] | MIC [7] [µg/mL] | MIC [8] [µg/mL] | MIC [9] [µg/mL] | SMILES
1 | 100 | 25 | 50 | 50 | 25 | 12.5 | 50 | 25 | 12.5 | C/C(=N\N=C1/CC(c2ccccc2)NC(c2ccccc2)C1C)c1ccccc1 (mixture of isomers)
2 | 50 (≈ 140 µM) | 12.5 (≈ 35 µM) | 12.5 (≈ 35 µM) | 12.5 (≈ 35 µM) | 50 (≈ 140 µM) | 25 (≈ 69.9 µM) | 12.5 (≈ 35 µM) | 50 (≈ 140 µM) | 12.5 (≈ 35 µM) | CC1/C(=N/N=C/c2ccco2)CC(c2ccccc2)NC1c1ccccc1 (stereo not given)
3 | 100 | 50 | 100 | 100 | 100 | 50 | 100 | 100 | 100 | CC1/C(=N/N=C2\CC(c3ccccc3)NC(c3ccccc3)C2C)CC(c2ccccc2)NC1c1ccccc1 (mixture of isomers)
4 | 100 (≈ 358 µM) | 100 (≈ 358 µM) |  |  |  |  | 100 (≈ 358 µM) |  | 100 (≈ 358 µM) | CC1/C(=N/N)CC(c2ccccc2)NC1c1ccccc1 (stereo not given)
5 | 50 (≈ 131 µM) | 12.5 (≈ 32.7 µM) | 12.5 (≈ 32.7 µM) | 25 (≈ 65.5 µM) | 25 (≈ 65.5 µM) | 12.5 (≈ 32.7 µM) | 25 (≈ 65.5 µM) | 25 (≈ 65.5 µM) | 6.25 (≈ 16.4 µM) | CC1/C(=N/N=C/c2ccccc2Cl)CC(c2ccco2)NC1c1ccco1 (stereo not given)
6 | 100 (≈ 242 µM) | 100 (≈ 242 µM) | 50 (≈ 121 µM) | 50 (≈ 121 µM) | 50 (≈ 121 µM) | 100 (≈ 242 µM) | 50 (≈ 121 µM) | 100 (≈ 242 µM) | 50 (≈ 121 µM) | CC1/C(=N/N=C/c2ccccc2[N+](=O)[O-])CC(c2ccccc2)NC1c1ccccc1 (stereo not given)
7 | 100 (≈ 261 µM) | 50 (≈ 130 µM) | 25 (≈ 65.2 µM) | 100 (≈ 261 µM) | 50 (≈ 130 µM) | 100 (≈ 261 µM) | 50 (≈ 130 µM) | 50 (≈ 130 µM) | 50 (≈ 130 µM) | CC1/C(=N/N=C/c2ccccc2O)CC(c2ccccc2)NC1c1ccccc1 (stereo not given)
8 | 100 (≈ 386 µM) | 100 (≈ 386 µM) |  |  |  |  | 100 (≈ 386 µM) |  | 100 (≈ 386 µM) | CC1/C(=N/N)CC(c2ccco2)NC1c1ccco1 (stereo not given)
9 | 100 | 12.5 | 12.5 | 50 | 50 | 12.5 | 25 | 25 | 6.25 | COc1ccc(/C=N/N=C2\CC(c3ccccc3)NC(c3ccccc3)C2C)cc1 (mixture of isomers)

Row | SMILES | MIC [1] [µg/mL] | MIC [2] [µg/mL] | MIC [3] [µg/mL] | MIC [4] [µg/mL] | MIC [5] [µg/mL] | MIC [6] [µg/mL] | MIC [7] [µg/mL] | MIC [8] [µg/mL] | MIC [9] [µg/mL]
10 | CN[C@@H]1[C@H](O[C@H]2[C@H](O[C@H]3[C@H](O)[C@@H](O)[C@H](N=C(N)N)[C@@H](O)[C@@H]3N=C(N)N)O[C@@H](C)[C@]2(O)C=O)O[C@@H](CO)[C@H](O)[C@H]1O [STREPTOMYCIN] |  |  |  |  | 25 (≈ 43 µM) | 12.5 (≈ 21.5 µM) | 25 (≈ 43 µM) | 50 (≈ 86 µM) | 12.5 (≈ 21.5 µM)
11 | C[C@@H]1[C@H](O)[C@@H](C)/C=C/C=C/C=C/C=C/C=C/C=C/C=C/[C@H](O[C@@H]2O[C@H](C)[C@@H](O)[C@H](N)[C@@H]2O)C[C@@H]2O[C@](O)(C[C@@H](O)C[C@@H](O)[C@H](O)CC[C@@H](O)C[C@@H](O)CC(=O)O[C@H]1C)C[C@H](O)[C@H]2C(=O)O [AMPHOTERICIN B] | 50 (≈ 54.1 µM) | 25 (≈ 27.1 µM) | 25 (≈ 27.1 µM) | 50 (≈ 54.1 µM) |  |  |  |  | 
